Each structure is given as a SMILES string. Calls of active or inactive are those of the source.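 The calls were made as follows: active = EC50 at most 30 µM plus a dose-response curve spanning at least 25% response; inactive = the rest.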

The target of this test is Ras-related C3 botulinum toxin substrate 1 (Homo sapiens) (UniProt P63000). The test is described as follows: activated mutant Rac1 GTP binding inhibitors, SAR follow-up, biochemical, pyrazoline analogs, multiplex bead flow cytometry (AID 2048). The following applies: Bead-based flow cytometry, Bodipy-FL-GTP binding to GST-Rac1.
For the compound `NS(=O)(=O)c1ccc(N2N=C(c3ccccc3)CC2c2ccccc2Br)cc1` (stereo not drawn), the EC50 result is “inactive”.
The same measure for `COc1ccc(C2CC(c3ccncc3)=NN2c2ccc(S(N)(=O)=O)cc2)cc1` (stereo not drawn): “inactive”; for `O=[N+]([O-])c1cccc(C2CC(c3ccccc3)=NN2c2ccccc2)c1` (stereo not drawn): “inactive”.
The same measure for `CN(C)c1ccc(C2CC(c3ccc(Cl)cc3)=NN2c2ccccc2)cc1` (stereo not drawn): “inactive”.
Turning to `CN(C)c1ccc(C2CC(c3ccc(Br)cc3)=NN2c2ccccc2)cc1` (stereo not drawn), the EC50 entry was “inactive”.
The same measure for `CN(C)c1ccc(C2CC(c3ccccc3)=NN2c2ccccc2)cc1` (stereo not drawn): “inactive”; for `Cc1ccccc1N1N=C(c2ccccc2)CC1c1cccc([N+](=O)[O-])c1` (stereo not drawn): “inactive”.
The same measure for `COc1ccccc1N1N=C(c2ccccc2)CC1c1ccccc1` (stereo not drawn): “inactive”.

Source of the values: PubChem BioAssay AID2048 (NMMLSC, 2009).
